As usually defined, the EC50 is the midpoint of the concentration-response curve.

What all share (experiment): Method 1: intracellular Ca2+ release (FLIPR, Calcium 5) in recombinant CHO-K1 cells
Holding throughout (format): cell-based

Test [1] addresses T1, human S1PR1 receptor (Homo sapiens, UniProt P21453).
T1 construct: host or cells: CHO-K1
The settings on record: (1): determined with method 1; read-out: S1P1 EC50. The essentials: (§1)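 CHO-K1 cells co-expressing the receptor, aequorin and Gq/i5 were loaded with Calcium 5 dye for 1 h at 37 °C, adapted 45 min to RT, then given serially diluted compound in HBSS/20 mmol/L Hepes/2.5 mmol/L probenecid/0.1% BSA, pH 7.4. FLIPR fluorescence was read; EC50 came from nonlinear fits normalized to phospho-fingolimod.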

Test [2] addresses T2, human S1PR4 receptor (Homo sapiens, UniProt O95977).
T2 construct: host or cells: CHO-K1
T2 sequence (O95977 1-384): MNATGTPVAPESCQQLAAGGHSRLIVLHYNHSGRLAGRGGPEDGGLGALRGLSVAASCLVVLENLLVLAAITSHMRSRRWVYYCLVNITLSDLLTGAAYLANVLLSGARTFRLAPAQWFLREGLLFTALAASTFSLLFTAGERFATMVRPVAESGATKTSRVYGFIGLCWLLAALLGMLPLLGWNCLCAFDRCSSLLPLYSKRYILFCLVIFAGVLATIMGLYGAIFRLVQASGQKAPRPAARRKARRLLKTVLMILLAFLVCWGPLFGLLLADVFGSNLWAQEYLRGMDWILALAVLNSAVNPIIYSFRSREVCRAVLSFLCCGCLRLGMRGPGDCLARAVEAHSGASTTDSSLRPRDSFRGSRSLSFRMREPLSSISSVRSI
Conditions: (1): determined with method 1; read-out: S1P4 EC50. Summed up: as §1

Test [3] addresses T3, human S1PR5 receptor (Homo sapiens, UniProt Q9H228).
T3 construct: host or cells: CHO-K1
Conditions: agonist potency, determined with method 1 (symbols A-D); read-out: S1P5 EC50 range. Summed up:
as §1

Counter-ions that a name gives are not always drawn.

T1 sequence (P21453 whole entry): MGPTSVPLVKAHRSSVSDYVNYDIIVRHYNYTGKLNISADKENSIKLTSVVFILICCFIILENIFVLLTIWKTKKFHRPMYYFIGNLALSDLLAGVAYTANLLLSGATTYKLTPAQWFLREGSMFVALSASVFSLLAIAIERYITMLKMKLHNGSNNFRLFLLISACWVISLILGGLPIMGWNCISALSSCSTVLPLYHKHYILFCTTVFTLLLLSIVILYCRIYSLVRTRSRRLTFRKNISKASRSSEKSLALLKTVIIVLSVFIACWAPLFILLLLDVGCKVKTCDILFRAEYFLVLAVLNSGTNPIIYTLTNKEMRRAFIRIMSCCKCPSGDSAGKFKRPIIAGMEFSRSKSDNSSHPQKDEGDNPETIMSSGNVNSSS
T3 sequence (Q9H228 whole entry): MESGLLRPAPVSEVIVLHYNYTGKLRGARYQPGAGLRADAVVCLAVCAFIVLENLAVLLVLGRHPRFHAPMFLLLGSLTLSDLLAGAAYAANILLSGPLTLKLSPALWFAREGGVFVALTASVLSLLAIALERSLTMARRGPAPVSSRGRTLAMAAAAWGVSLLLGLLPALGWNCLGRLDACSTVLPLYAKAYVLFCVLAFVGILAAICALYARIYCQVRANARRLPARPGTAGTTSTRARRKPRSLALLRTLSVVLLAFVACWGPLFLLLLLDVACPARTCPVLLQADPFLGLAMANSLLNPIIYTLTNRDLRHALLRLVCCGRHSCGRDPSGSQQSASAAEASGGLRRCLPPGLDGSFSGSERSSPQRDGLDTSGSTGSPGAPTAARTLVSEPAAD

Turning to `O=C(O)C1(CCN2CCc3nc(-c4ccc(OCc5ccc(Cl)cc5)cc4)ncc3C2)CC1` [Compound 335, 1-(2-(2-(4-((4-chlorobenzyl)oxy)phenyl)-7,8-dihydropyrido[4,3-d]pyrimidin-6(5H)-yl)ethyl)cyclopropanecarboxylic acid], the EC50 in test [1] was above 1 µM; in test [2] it was above 1 µM; in test [3] it was 0.1 to 1 µM.
With `CC(CC(=O)O)CN1CCc2nc(-c3ccc(OCc4ccc(F)cc4)cc3F)ncc2C1` (stereo not drawn) [Compound 298, 4-[2-[2-fluoro-4-[(4-fluorophenyl)methoxy]phenyl]-7,8-dihydro-5H-pyrido[4,3-d]pyrimidin-6-yl]-3-methyl-butanoic acid 2,2,2-trifluoroacetic acid salt], the EC50 in test [1] is above 1 µM; in test [2], above 1 µM; in test [3], 0.1 to 1 µM.
Turning to `Cc1cc(-c2ncc3c(n2)CCN(CC(C)CC(=O)O)C3)ccc1OCc1ccccc1C(F)(F)F` (stereo not drawn) [Compound 309, 3-methyl-4-[2-[3-methyl-4-[[2-(trifluoromethyl)phenyl]methoxy]phenyl]-7,8-dihydro-5H-pyrido[4,3-d]pyrimidin-6-yl]butanoic acid 2,2,2-trifluoroacetic acid salt], the EC50 in test [1] is above 1 µM; in test [2], above 1 µM; in test [3], 0.1 to 1 µM.
As for `CC(CC(=O)O)CN1Cc2cnc(-c3ccc(OCc4ccc(Cl)cc4)cc3)nc2CC1(C)C` (stereo not drawn) [Compound 329, 4-(2-(4-((4-chlorobenzyl)oxy)phenyl)-7,7-dimethyl-7,8-dihydropyrido[4,3-d]pyrimidin-6(5H)-yl)-3-methylbutanoic acid], the EC50 in test [1] is above 1 µM; in test [2] it was above 1 µM; in test [3], 1 to 10 µM.
For the compound `CC(C)(CC(=O)O)CN1CCc2nc(-c3ccc(OCc4ccc(Cl)c(Cl)c4)cc3)ncc2C1` [Compound 217, 4-(2-(4-((3,4-dichlorobenzyl)oxy)phenyl)-7,8-dihydropyrido[4,3-d]pyrimidin-6(5H)-yl)-3,3-dimethylbutanoic acid], the EC50 in test [1] was above 1 µM; in test [2], above 1 µM; in test [3], 0.1 to 1 µM.
Consider `O=C(O)C1CCC(N2CCc3nc(-c4ccc(OCc5cccc(Cl)c5)cc4)ncc3C2)C1` (stereo not drawn) [Compound 288, 3-(2-(4-((3-chlorobenzyl)oxy)phenyl)-7,8-dihydropyrido[4,3-d]pyrimidin-6(5H)-yl)cyclopentanecarboxylic acid hydrochloride], for which the EC50 in test [1] was above 1 µM; in test [2], above 1 µM; in test [3], 0.1 to 1 µM.
As to `Cc1ccc(C(F)(F)F)cc1COc1ccc(-c2ncc3c(n2)CCN(CC(C)CC(=O)O)C3)c(F)c1` (stereo not drawn) [Compound 272, 4-[2-[2-fluoro-4-[[2-methyl-5-(trifluoromethyl)phenyl]methoxy]phenyl]-7,8-dihydro-5H-pyrido[4,3-d]pyrimidin-6-yl]-3-methyl-butanoic acid 2,2,2-trifluoroacetic acid salt], the EC50 in test [1] is above 1 µM; in test [2] it was above 1 µM; in test [3], 0.01 to 0.1 µM.
For the compound `Cc1cccc(COc2ccc(-c3ncc4c(n3)CCN(CC(C)CC(=O)O)C4)cc2C)c1` (stereo not drawn) [Compound 320, 3-methyl-4-[2-[3-methyl-4-(m-tolylmethoxy)phenyl]-7,8-dihydro-5H-pyrido[4,3-d]pyrimidin-6-yl]butanoic acid 2,2,2-trifluoroacetic acid salt], the EC50 in test [1] is above 1 µM; in test [2], above 1 µM; in test [3] it was 1 to 10 µM.
For `C[C@@H](CC(=O)O)CN1CCc2nc(-c3ccc(CCc4ccc(Cl)cc4)cc3)ncc2C1` [Compound 278, (S)-4-(2-(4-(4-chlorophenethyl)phenyl)-7,8-dihydropyrido[4,3-d]pyrimidin-6(5H)-yl)-3-methylbutanoic acid], the EC50 in test [1] is above 1 µM; in test [2], above 1 µM; in test [3], 0.01 to 0.1 µM.
`CC(CC(=O)O)CN1CCc2nc(-c3ccc(OCc4cccc(Cl)c4)cc3)cnc2C1` (stereo not drawn) [Compound 209, 4-(2-(4-((3-chlorobenzyl)oxy)phenyl)-7,8-dihydropyrido[3,4-b]pyrazin-6(5H)-yl)-3-methylbutanoic acid]: the figures for the EC50 in test [1], in test [2] and in test [3] were above 1 µM, above 1 µM and below 0.01 µM, respectively.
Consider `Cc1cc(-c2ncc3c(n2)CCN(CC(C)CC(=O)O)C3)ccc1OCc1ccccc1Cl` (stereo not drawn) [Compound 262, 4-(2-(4-((2-chlorobenzyl)oxy)-3-methylphenyl)-7,8-dihydropyrido[4,3-d]pyrimidin-6(5H)-yl)-3-methylbutanoic acid], for which the EC50 in test [1] was above 1 µM; in test [2], above 1 µM; in test [3], 0.01 to 0.1 µM.
For the compound `CC(CC(=O)O)CN1CCc2nc(C3CC(OCc4ccccc4)C3)ncc2C1` (stereo not drawn) [Compound 333, 4-(2-(3-(benzyloxy)cyclobutyl)-7,8-dihydropyrido[4,3-d]pyrimidin-6(5H)-yl)-3-methylbutanoic acid], the EC50 was above 1 µM in test [1], above 1 µM in test [2] and 1 to 10 µM in test [3].
Turning to `CC(C(=O)O)N1CCc2nc(-c3ccc(OCc4ccccc4)cc3)ncc2C1` (stereo not drawn) [Compound 322, 2-(2-(4-(benzyloxy)phenyl)-7,8-dihydropyrido[4,3-d]pyrimidin-6(5H)-yl)propanoic acid], the EC50 in test [1] is above 1 µM; in test [2] it was above 1 µM; in test [3], 1 to 10 µM.
In the case of `Cc1ccc(C)c(COc2ccc(-c3ncc4c(n3)CCN(CC(C)CC(=O)O)C4)cc2C)c1` (stereo not drawn) [Compound 311, 4-[2-[4-[(2,5-dimethylphenyl)methoxy]-3-methyl-phenyl]-7,8-dihydro-5H-pyrido[4,3-d]pyrimidin-6-yl]-3-methyl-butanoic acid 2,2,2-trifluoroacetic acid salt], the EC50 in test [1] is above 1 µM; in test [2], above 1 µM; in test [3], 0.1 to 1 µM.
As for `C[C@H](CC(=O)O)C(=O)N1CCc2nc(-c3ccc(OCc4ccc(Cl)cc4)cc3)ncc2C1` [Compound 332, (R)-4-(2-(4-((4-chlorobenzyl)oxy)phenyl)-7,8-dihydropyrido[4,3-d]pyrimidin-6(5H)-yl)-3-methyl-4-oxobutanoic acid], the concentration for a half-maximal effect (EC50) is above 1 µM in test [1], above 1 µM in test [2] and 1 to 10 µM in test [3].
Take `Cc1ccc(COc2ccc(-c3ncc4c(n3)CCN(CC(C)CC(=O)O)C4)cc2C)cc1` (stereo not drawn) [Compound 301, 3-methyl-4-[2-[3-methyl-4-(p-tolylmethoxy)phenyl]-7,8-dihydro-5H-pyrido[4,3-d]pyrimidin-6-yl]butanoic acid 2,2,2-trifluoroacetic acid salt]: the results for the EC50 in test [1], in test [2] and in test [3] were above 1 µM, above 1 µM and 0.1 to 1 µM, respectively.
Regarding `CC(CC(=O)O)CN1CCc2nc(-c3ccc(/C=C/c4ccc(Cl)cc4)cc3)ncc2C1` (stereo not drawn) [Compound 297, 4-(2-(4-(4-chlorostyryl)phenyl)-7,8-dihydropyrido[4,3-d]pyrimidin-6(5H)-yl)-3-methylbutanoic acid], the EC50 in test [1] was above 1 µM; in test [2], above 1 µM; in test [3], 0.1 to 1 µM.
`Cc1ccc(C(F)(F)F)cc1COc1ccc(-c2ncc3c(n2)CCN(CC(C)CC(=O)O)C3)cc1C` (stereo not drawn) [Compound 314, 3-methyl-4-[2-[3-methyl-4-[[2-methyl-5-(trifluoromethyl)phenyl]methoxy]phenyl]-7,8-dihydro-5H-pyrido[4,3-d]pyrimidin-6-yl]butanoic acid 2,2,2-trifluoroacetic acid salt]: the EC50 in test [1] was above 1 µM; in test [2] it was above 1 µM; in test [3] it was 0.1 to 1 µM.
As for `CC(CC(=O)O)CN1CCc2nc(-c3ccc(C4CC4c4ccc(Cl)cc4)cc3)ncc2C1` (stereo not drawn) [Compound 323, 4-(2-(4-(2-(4-chlorophenyl)cyclopropyl)phenyl)-7,8-dihydropyrido[4,3-d]pyrimidin-6(5H)-yl)-3-methylbutanoic acid], the EC50 is above 1 µM in test [1], above 1 µM in test [2] and 1 to 10 µM in test [3].
As to `CC(CC(=O)O)CN1CCc2nc(-c3ccc(CCc4ccc(Cl)cc4)cc3F)ncc2C1` (stereo not drawn) [Compound 255, 4-(2-(4-(4-chlorophenethyl)-2-fluorophenyl)-7,8-dihydropyrido[4,3-d]pyrimidin-6(5H)-yl)-3-methylbutanoic acid], the EC50 in test [1] is above 1 µM; in test [2], above 1 µM; in test [3], below 0.01 µM.
As for `Cc1cc(-c2ncc3c(n2)CCN(C[C@H](C)CC(=O)O)C3)ccc1OCc1ccc(Cl)cc1` [Compound 318, (R)-4-(2-(4-((4-chlorobenzyl)oxy)-3-methylphenyl)-7,8-dihydropyrido[4,3-d]pyrimidin-6(5H)-yl)-3-methylbutanoic acid], the EC50 in test [1] is above 1 µM; in test [2], above 1 µM; in test [3], 0.1 to 1 µM.
For the compound `O=C(O)CN1CCc2nc(-c3ccc(OCc4cc(F)cc(F)c4)cc3)ncc2C1` [Compound 31, 2-(2-(4-((3,5-difluorobenzyl)oxy)phenyl)-7,8-dihydropyrido[4,3-d]pyrimidin-6(5H)-yl)acetic acid], the EC50 is above 1 µM in test [1], above 1 µM in test [2] and 0.1 to 1 µM in test [3].
